Counter-ions that a name gives are not always drawn. ± gives the standard deviation of the averaged measurements.
Tested on: RD-ES
Test: relative viability vs DMSO control (72 h) (fraction); higher = more viable cells
Method in brief: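 Sarcoma cell lines were plated in 384 wells to reach 80–90% confluence, treated after 24 h with 2.5 µl of serially diluted compound and held 72 h at 37 °C, 5% CO2. Relative viability was taken as percent growth from ATPLite readings, averaged over up to triplicate wells. The values were rescaled so that 1 marks full and 0 marks none.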

SMILES	relative viability (0.00017 µM)	relative viability (0.00051 µM)	relative viability (0.00152 µM)	relative viability (0.00457 µM)	relative viability (0.01372 µM)	relative viability (0.04115 µM)	relative viability (0.1235 µM)	relative viability (0.3704 µM)	relative viability (1.111 µM)	relative viability (3.333 µM)	relative viability (10 µM)
O=C(Nc1cnn2ccc(N3CCC[C@@H]3c3cc(F)ccc3F)nc12)N1CC[C@H](O)C1 [Larotrectinib]	0.95 ± 0.031	0.963 ± 0.01	0.978 ± 0.05	0.961 ± 0.024	0.9532 ± 0.0046	0.976 ± 0.016	0.961 ± 0.013	0.964 ± 0.014	0.968 ± 0.022	0.931 ± 0.052	0.932 ± 0.042
C[C@@H]1COCCN1c1cc(-c2ccnn2C)c2ccnc(-c3ccn[nH]3)c2n1	0.987 ± 0.036	1.02 ± 0.044	1.04 ± 0.047	1.02 ± 0.04	1.01 ± 0.034	0.957 ± 0.0036	0.686 ± 0.026	0.279 ± 0.015	0.113 ± 0.096	0.155 ± 0.019	0.156 ± 0.0075
CC(C)N1CCN(Cc2cnc(-c3cc(-c4cccc5[nH]ccc45)cc4[nH]ncc34)o2)CC1 [Nemiralisib]	1 ± 0.036	1 ± 0.016	0.973 ± 0.028	0.978 ± 0.023	0.987 ± 0.03	1.02 ± 0.042	0.9842 ± 0.004	1.01 ± 0.041	0.984 ± 0.036	0.854 ± 0.016	0.223 ± 0.033
COc1cccc2c1C(=O)c1c(O)c3c(c(O)c1C2=O)C[C@@](O)(C(=O)CO)C[C@@H]3O[C@H]1C[C@H](N)[C@H](O)[C@H](C)O1 [Doxorubicin Hydrochloride]	1.01 ± 0.032	1.03 ± 0.037	1.02 ± 0.014	1 ± 0.025	0.749 ± 0.0091	0.374 ± 0.014	0.155 ± 0.011	0.036 ± 0.0064	0.0178 ± 0.0034	0.00453 ± 5.8e-05	0.0075 ± 0.00089
Nc1cc(C(F)(F)F)c(-c2cc(N3CCOCC3)nc(N3CCOCC3)n2)cn1 [Buparlisib]	0.97 ± 0.037	0.956 ± 0.025	0.946 ± 0.026	0.949 ± 0.021	0.935 ± 0.013	0.922 ± 0.01	0.864 ± 0.0088	0.717 ± 0.021	0.341 ± 0.0073	0.102 ± 0.0037	0.0722 ± 0.0025
Cc1cc(Nc2ncnc3ccc(NC4=NC(C)(C)CO4)cc23)ccc1Oc1ccn2ncnc2c1 [Tucatinib]	0.989 ± 0.03	0.999 ± 0.035	1 ± 0.027	1 ± 0.035	0.95 ± 0.055	0.996 ± 0.027	0.991 ± 0.014	0.974 ± 0.02	0.985 ± 0.037	0.983 ± 0.031	0.9422 ± 0.0042
Cc1nc(-c2cn3c(n2)-c2ccc(-c4cnn(C(C)(C)C(N)=O)c4)cc2OCC3)n(C(C)C)n1 [Taselisib]	0.992 ± 0.028	0.983 ± 0.033	0.962 ± 0.026	0.949 ± 0.019	0.851 ± 0.044	0.694 ± 0.01	0.556 ± 0.0063	0.472 ± 0.0073	0.426 ± 0.016	0.347 ± 0.0097	0.224 ± 0.0038
CN1CCC(COc2cnc(-c3cccc(Cn4nc(-c5cccc(C#N)c5)ccc4=O)c3)nc2)CC1 [Tepotinib]	0.997 ± 0.016	1.01 ± 0.013	1.01 ± 0.014	1 ± 0.013	0.971 ± 0.024	1 ± 0.017	0.99 ± 0.043	0.991 ± 0.035	0.969 ± 0.029	0.953 ± 0.017	0.887 ± 0.025
CNC(=O)c1cc(Oc2ccc(NC(=O)Nc3ccc(Cl)c(C(F)(F)F)c3)c(F)c2)ccn1 [Regorafenib]	0.965 ± 0.055	0.959 ± 0.053	0.991 ± 0.036	0.975 ± 0.047	0.983 ± 0.042	0.979 ± 0.014	0.986 ± 0.034	0.973 ± 0.052	0.932 ± 0.058	0.87 ± 0.043	0.776 ± 0.033
CCCS(=O)(=O)Nc1ccc(F)c(C(=O)c2c[nH]c3ncc(-c4ccc(Cl)cc4)cc23)c1F [Vemurafenib]	0.978 ± 0.032	0.983 ± 0.024	0.975 ± 0.044	0.995 ± 0.051	0.982 ± 0.039	0.994 ± 0.05	0.99 ± 0.041	0.991 ± 0.047	0.984 ± 0.039	0.967 ± 0.042	0.7 ± 0.27
COc1c(OCCCN2CCOCC2)ccc2c1N=C(NC(=O)c1cnc(N)nc1)N1CCN=C21 [Copanlisib]	0.977 ± 0.031	0.932 ± 0.023	0.947 ± 0.056	0.638 ± 0.087	0.571 ± 0.05	0.494 ± 0.023	0.344 ± 0.013	0.218 ± 0.0085	0.0703 ± 0.0047	0.007 ± 0.00036	0.0101 ± 0.0011
CC(=O)Nc1cccc(-n2c(=O)n(C3CC3)c(=O)c3c(Nc4ccc(I)cc4F)n(C)c(=O)c(C)c32)c1 [Trametinib]	0.979 ± 0.039	0.973 ± 0.036	0.969 ± 0.044	0.957 ± 0.022	0.973 ± 0.049	0.959 ± 0.037	0.946 ± 0.019	0.975 ± 0.031	0.978 ± 0.06	0.957 ± 0.052	0.941 ± 0.062
COCc1c(-c2cc3cc(C)cc(OC)c3s2)c2c(N)ncnn2c1CN1CCNC(=O)C1 [Rogaratinib]	1.04 ± 0.027	0.997 ± 0.028	1.03 ± 0.012	1.02 ± 0.032	1.03 ± 0.013	1 ± 0.036	0.971 ± 0.043	0.958 ± 0.013	0.91 ± 0.029	0.774 ± 0.014	0.455 ± 0.0058
COc1cc2/c(=N/c3ccc(Br)cc3F)nc[nH]c2cc1OCC1CCN(C)CC1 [Vandetanib]	0.944 ± 0.034	0.949 ± 0.031	0.957 ± 0.01	0.939 ± 0.047	0.927 ± 0.025	0.94 ± 0.041	0.944 ± 0.053	0.922 ± 0.056	0.804 ± 0.054	0.648 ± 0.029	0.0224 ± 0.01
CNC(=O)c1ccc(-c2cnc3ncc(Cc4ccc5ncccc5c4)n3n2)cc1F [Capmatinib]	0.992 ± 0.014	1.005 ± 0.0083	0.9871 ± 0.0074	0.994 ± 0.017	0.98 ± 0.021	1 ± 0.018	1.01 ± 0.023	1.03 ± 0.024	1.03 ± 0.025	1.02 ± 0.011	1 ± 0.028
CCN1CCN(Cc2ccc(Nc3ncc(F)c(-c4cc(F)c5nc(C)n(C(C)C)c5c4)n3)nc2)CC1 [Abemaciclib]	0.975 ± 0.016	0.9649 ± 0.0077	0.988 ± 0.02	0.961 ± 0.027	0.908 ± 0.047	0.771 ± 0.038	0.638 ± 0.014	0.544 ± 0.015	0.526 ± 0.074	0.447 ± 0.057	0.292 ± 0.023
C=CC(=O)N1CCC[C@@H](n2nc(-c3ccc(Oc4ccccc4)cc3)c3c(N)ncnc32)C1 [Ibrutinib]	0.985 ± 0.032	0.967 ± 0.043	0.993 ± 0.05	0.97 ± 0.038	0.976 ± 0.04	0.988 ± 0.032	0.957 ± 0.034	0.969 ± 0.015	0.989 ± 0.04	0.957 ± 0.031	0.882 ± 0.013
Cn1cnc2c(F)c(Nc3ccc(Br)cc3F)c(C(=O)NOCCO)cc21 [Binimetinib]	0.9413 ± 0.0039	0.9487 ± 0.0073	0.976 ± 0.024	0.969 ± 0.026	0.942 ± 0.025	0.938 ± 0.053	0.962 ± 0.043	0.919 ± 0.061	0.883 ± 0.026	0.925 ± 0.034	0.879 ± 0.042

Reference: the supplement of paper PMC10883282
